From publication PMC7002685, “Inhibition of vascular calcification by inositol phosphates derivatized with ethylene glycol oligomers” (Nature Communications, 2020) come the findings set out here.

Each structure is given as a SMILES string. Several values for one entry are separate records, joined by “and”; a condition that tells them apart may be missing. Equal values may be shown once. Read-outs that look alike come from different tables or passages of the source.

Usually AUC(0-inf) stands for the area under the concentration-time curve extrapolated to infinity. A low value points to low exposure. In general, MRT refers to the average time that molecules of a dose stay in the body. Broadly, the half-life is the time in which the quantity being followed falls by half. The low end stands for rapid decline, the high end for slow decline. A word on the Cmax: it is the highest concentration seen after dosing. In general, inhibition refers to the change of the read-out against control, counted positive when it falls. By % Inhibition is commonly meant the drop in the measured response relative to a control, in per cent. Read a low % Inhibition as little suppression.

A short description of data set [1]: PK after sub-chronic s.c. treatment (7 days). It counts as in vivo, male Sprague-Dawley rats. The following applies: for plasma concentration: unit not given. The protocol:
To study PK in healthy animals, male Sprague-Dawley rats (Harlan, Correzzana, Italy) were housed up to three per cage with free access to water and standard chow (pellets 12 mm, global diet 2018 certificate, Mucedola, Srl, Settimo Milanese, Italy), and submitted to a 12-h light/dark cycle. Animals were administered i.v. 10 mg/kg of (OEG2)2-IP4 in saline solution i.v. (30 s bolus, 5 mL/kg) and s.c. (5 mL/kg), respectively, in three animals per route and treatment. […] Plasma calcium concentration was determined in pre-dose samples and in t = 30 min samples of both acute and chronic treatments using the calcium colorimetric assay. Blood samples of 100 µL were drawn at several time points from the caudal vein, centrifuged at (3000 × g, 4 °C, 10 min) and stored at −80 °C until analysis by liquid chromatography–tandem mass spectrometry (LC-MS/MS).

The nature of data set [2]: PK s.c. in healthy and adenine/high-phosphate-diet (uremic) rats. It counts as in vivo. The following applies: male, Sprague-Dawley, rat, sc; for AUC(0-t): read-out: AUC0-360 (converted). How it is done: For many drugs, the PK profile depends on the patient’s renal status. Therefore, (OEG2)2-IP4 PK profile was also determined in an adenine and high-phosphate-diet-induced rat model of uremia, in which the compound was administered after serum creatinine levels had increased by fourfold relative to baseline (Fig. 4g, h). […] Similar results were observed following s.c. administration (Supplementary Table 5).
To study PK in uremic animals, male Sprague-Dawley rats (Charles River Laboratories, L’Arbresle, France) were housed two per cage with free access to water and standard chow (rat/mouse maintenance diet, SSNIFF Spezialdiäten GmbH, Soest, Germany) and submitted to a 12-h light/dark cycle. Animals were fed a low-protein (2.5%) diet containing high phosphorus (1.3% phosphorus and 0.7% calcium) and 0.3% adenine to induce uremia (SSNIFF Spezialdiäten GmbH). Control animals were fed same diet but without adenine. Every 10 days, a sample of blood was punctured at the tail vein of each animal. Serum and urine creatinine, calcium, and phosphorus were then assessed using standard colorimetric biochemistry analysis (Cobas Mira, Roche, Basel, Switzerland). When a fourfold increase of creatinine was observed compared to control, the rat was considered uremic and suitable for PK experiments. The method was validated using eight animals on control- and adenine-supplemented diet respectively. For PK studies, on the morning of the experimental day, a catheter was inserted in the right carotid artery under halothane anesthesia. Subsequently, rats were allowed to recover for 3 h and uremic and non-uremic rats, respectively, were assigned to three groups of six rats each. […] Blood aliquots were drawn after drug administration, centrifuged, decanted, and stored at −80 °C until serum drug quantification by LC-MS, as well as analysis of serum creatinine, calcium, and phosphorus (Cobas Mira).
The bioanalytical method for (OEG2)2-IP4 in rat plasma was further optimized, qualified, and applied to the comparative PK study in adenine and high-phosphate diet-induced VC vs. vitamin D-induced VC animals. The LC-MS/MS analyses were carried out using a Dionex Ultimate RSLC ultra-high-pressure liquid chromatography (UHPLC) system (Thermo Fisher Scientific) coupled with a TSQ Quantiva^TM triple quadrupole mass spectrometer. The samples were stored at 5 °C in the autosampler prior to and during the analyses. […] Gradient elution (solvent A, 20 mM ammonium acetate in water (pH 5); solvent B, ACN) was used according to the program reported in Supplementary Table 18. The injection volume was 10 µL. MS/MS parameters (MRM acquisition, cycle time 0.2 s) for (OEG2)2-IP4 are reported in Supplementary Table 19 and the ESI source, working in negative ionization mode, applied the following parameters: static spray voltage 3000 V ion transfer tube and vaporizer temperatures at 400 and 100 °C, respectively; sheath and auxiliary gas (nitrogen) flow rates at 80 and 3 (arbitrary units). For the quantitative determination in rat plasma, product ion m/z 158.9 was selected because it provided the best sensitivity and selectivity. Calibration curve and quality control samples were prepared by adding 2 μL of working solution to 38 μL rat blank K3EDTA plasma (Biochemed, Winchester, VA) and precipitating plasma protein by addition of 120 μL of MeOH including internal standard OEG11-IP5. Samples were vortexed 1 min and centrifuged at (22,000 × g, 4 °C, 10 min). Supernatants (90 μL) were then transferred into a glass vial with insert and injected onto LC-MS/MS system. Both in adenine and high-phosphate diet-induced VC and vitamin D-induced VC rat PK samples were prepared for analysis in an analogous manner as done for spiked samples (assay volume 40 μL). The LLOQ and LOD in rat plasma for (OEG2)2-IP4 were 50 and 10 ng/mL, respectively. The ULOQ and detection was 50,000 ng/mL.

For the next data set, the target named is T1, Phosphodiesterase PDE3 (Homo sapiens, UniProt Q14432).
T1 construct: purchased Eurofins Panlabs Discovery Services Taiwan, Ltd
T1 sequence (Q14432 whole entry): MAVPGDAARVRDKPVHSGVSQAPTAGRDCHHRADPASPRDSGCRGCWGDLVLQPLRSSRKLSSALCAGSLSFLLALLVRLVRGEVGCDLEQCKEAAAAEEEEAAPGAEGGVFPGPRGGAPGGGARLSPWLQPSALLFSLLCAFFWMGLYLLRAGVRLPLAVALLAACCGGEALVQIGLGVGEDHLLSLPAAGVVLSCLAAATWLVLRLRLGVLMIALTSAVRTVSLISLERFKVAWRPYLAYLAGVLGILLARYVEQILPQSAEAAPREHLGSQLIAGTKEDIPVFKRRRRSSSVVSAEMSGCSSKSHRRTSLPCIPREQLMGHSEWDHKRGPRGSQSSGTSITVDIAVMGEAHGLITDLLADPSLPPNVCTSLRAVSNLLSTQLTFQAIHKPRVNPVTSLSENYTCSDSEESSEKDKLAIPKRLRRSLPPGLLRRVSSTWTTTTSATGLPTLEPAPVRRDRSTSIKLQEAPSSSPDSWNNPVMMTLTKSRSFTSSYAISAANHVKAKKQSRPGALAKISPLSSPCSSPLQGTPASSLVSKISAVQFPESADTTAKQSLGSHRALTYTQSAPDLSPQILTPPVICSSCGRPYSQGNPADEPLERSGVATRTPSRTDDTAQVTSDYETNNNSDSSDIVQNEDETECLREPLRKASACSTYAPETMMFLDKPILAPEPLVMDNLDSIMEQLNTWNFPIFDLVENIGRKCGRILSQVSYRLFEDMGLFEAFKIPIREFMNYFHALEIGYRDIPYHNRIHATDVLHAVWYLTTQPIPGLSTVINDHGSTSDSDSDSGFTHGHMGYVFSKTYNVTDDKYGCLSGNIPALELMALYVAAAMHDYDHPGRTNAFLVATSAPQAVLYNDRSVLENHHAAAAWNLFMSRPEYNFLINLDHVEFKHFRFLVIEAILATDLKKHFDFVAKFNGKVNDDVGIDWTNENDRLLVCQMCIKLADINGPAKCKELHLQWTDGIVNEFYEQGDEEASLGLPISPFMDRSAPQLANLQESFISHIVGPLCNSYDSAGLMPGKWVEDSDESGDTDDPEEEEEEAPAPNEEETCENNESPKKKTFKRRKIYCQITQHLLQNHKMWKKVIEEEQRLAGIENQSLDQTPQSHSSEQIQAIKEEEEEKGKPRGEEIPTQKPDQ
Put plainly: Off-target 152000. It counts as biochemical. The protocol: (§1) The potential off-target activity of 10 µM (OEG2)2-IP4 was assessed against a panel of 87 enzymes, receptors, or ion channels that are used in standard safety pharmacology screens.
(§2) 3.2. Off-target screening assay
(§3) The experiments were conducted by a contract research organization (Eurofins Panlabs Discovery
(§4) Services Taiwan, Ltd.) and details on the respective assays can be retrieved via the catalog number
(§5) provided in Supplementary Table 11 from the company’s webpage
(§6) (https://www.eurofinsdiscoveryservices.com/). […]

A further data set deals with Androgen (Testosterone). As to the kind of experiment: Off-target 206000. In kind it is binding, Human. To be noted: 10 µM. How it is done: as §1, §2, §3, §4, §5, §6
The target in another data set is T2, Chemokine CCR1 (Homo sapiens, UniProt P32246).
T2 construct: purchased Eurofins Panlabs Discovery Services Taiwan, Ltd
T2 sequence (P32246 whole entry): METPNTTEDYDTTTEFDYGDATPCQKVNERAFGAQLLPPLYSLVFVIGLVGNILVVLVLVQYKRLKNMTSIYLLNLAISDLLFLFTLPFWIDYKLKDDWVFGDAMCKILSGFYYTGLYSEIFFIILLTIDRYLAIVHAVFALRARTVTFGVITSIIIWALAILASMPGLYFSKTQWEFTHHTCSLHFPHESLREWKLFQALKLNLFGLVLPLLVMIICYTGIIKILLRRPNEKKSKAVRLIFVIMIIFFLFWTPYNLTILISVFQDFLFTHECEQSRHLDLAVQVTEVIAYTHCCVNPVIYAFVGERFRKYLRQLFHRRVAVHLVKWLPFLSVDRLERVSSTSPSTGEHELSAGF
Put plainly: Off-target 217510. It counts as binding. How it is done:
as §1, §2, §3, §4, §5, §6

Where [3] appears, read: serum, 10 mg/kg, 10 mg/kg s.c., Healthy.
The mark [4] stands for this setting: serum, 10 mg/kg, 10 mg/kg s.c., Uremic.

As to `COCCOCCO[C@@H]1[C@@H](OP(=O)(O)O)[C@H](OCCOCCOC)[C@@H](OP(=O)(O)O)[C@@H](OP(=O)(O)O)[C@H]1OP(=O)(O)O` [(OEG2)2-IP4, 4,6-Di-O-(methoxy-diethyleneglycol)-myo-inositol-1,2,3,5-tetrakis(phosphate)], in data set [1] (50 mg/kg for 7 days), the “accumulation following repeated s.c. administration” value was “No significant accumulation”. The plasma concentration is 0.18 and 0.24 and 0.25 and 0.16 in data set [1] (50 mg/kg/day s.c. sub-chronic (7 days), time 0); 82.39 and 90 and 95.45 and 69.57 in data set [1] (50 mg/kg/day s.c. sub-chronic, time 0.5); 64.18 and 72.74 and 67.54 and 66.21 in data set [1] (50 mg/kg/day s.c. sub-chronic, time 1); 31.83 and 38.97 and 22.86 and 35.06 in data set [1] (50 mg/kg/day s.c. sub-chronic, time 2); 0.78 and 0.86 and 0.76 and 0.85 in data set [1] (50 mg/kg/day s.c. sub-chronic, time 8); 0.07 and 0.13 and 0.08 in data set [1] (50 mg/kg/day s.c. sub-chronic, time 24). The concentration at 3 h in data set [2] (plasma, 10 mg/kg, Healthy, s.c., Time 3 h, individual rats, read-out: plasma concentration (Figure 4h)) amounted to 2.57 µM. Further, the AUC(0-inf) in data set [2] (setting [3]) was 19.7 µM·h; in data set [2] (setting [4]), 37.9 µM·h. Moreover, the results for the MRT in data set [2] (setting [3]) and in data set [2] (setting [4]) were 1.1 h and 2.07 h, respectively. Besides, the figures for the half-life in data set [2] (setting [3]) and in data set [2] (setting [4]) were 1.32 ± 0.45 h and 2.05 ± 1.07 h, respectively. In addition, the AUC(0-t) was 19.2 µM·h in data set [2] (setting [3]) and 31.8 µM·h in data set [2] (setting [4]). Further, the highest level in data set [2] (serum, 10 mg/kg s.c., Healthy) (Cmax) was 12 ± 4 µM. Further, the inhibition at 10 µM against Phosphodiesterase PDE3 was -1%; on Chemokine CCR1, -2%. In addition, the “% Inhibition” value in the data set with Androgen (Testosterone) was 12%.
